According to patent publication US5128331A, “Method for lowering plasma lipid levels or blood pressure” (priority 1988, dated 1992):
Read-outs that look alike come from different tables or passages of the source.

Legend:
[1] = test system: spontaneously hypertensive rat (SHR); experiment: Oral hypotensive activity in spontaneously hypertensive rats (SHR); assay type: in vivo; details: 2 hours post dose, Table 5
Method: The spontaneously hypertensive rat (SHR) is a well established animal model of human arterial hypertension.
In screening experiments various gem-diphosphonates were dissolved in Tween-80 and administered orally to SH rats. Blood pressure was monitored hourly using a tailcuff method.

mice of the OF1 strain = experiment: Hypolipidemic activity: plasma cholesterol and plasma triglycerides in mice fed compound in chow; assay type: in vivo; details: for change in vivo at 180 mg/kg: Mus musculus, feed or water, 240 h
Method: With the goal of finding new drugs which might be hypolipidemic, the new diphosphonates described in this patent application were administered orally to mice. This rodent species has plasma lipid level relatively close to man (generally greater than 150 mg/dl). For example, in mice receiving a normal diet the plasma cholesterol and triglyceride levels are in the range of 100 mg/dl, whereas for rat the comparative values are close to 50 mg/dl.
In every screening experiment, 30 mice of the OF1 strain weighing 25 to 35 g were divided into 5 groups of 6 animals each. Four groups received the compounds to be tested, or the reference drugs, the fifth group served as control. Compounds were dissolved in diethyl ether, and solution was added to the pelleted food and the ether was evaporated.
All compounds were tested at the final concentration of 0.1% in animal chow, equivalent to a daily intake of about 180 mg/kg. This diet was fed for 10 days, then after an overnight fasting the animals were sacrified by decapitation under ether anesthesia. Blood samples were collected in EDTA containing tubes.
Plasma cholesterol and plasma triglycerides were measured by enzymatic methods (Ames kit No. 6376 and No. 6630).

[2] = read-out: Cholesterol (% control)
[3] = read-out: Triglycerides (% control)
[4] = mice, 0.1% in animal chow (about 180 mg/kg daily), 10 days, Table 3, given as change from control, read-out: Cholesterol (% control)
[5] = mice, 0.1% in animal chow (about 180 mg/kg daily), 10 days, Table 3, given as change from control, read-out: Triglycerides (% control)

| SMILES | change in vivo at 180 mg/kg (mice of the OF1 strain; [2]) [%] | change in vivo at 180 mg/kg (mice of the OF1 strain; [3]) [%] | hypocholesterolemic activity (in words) (mice of the OF1 strain; mice, 0.1% in chow, 10 days) | hypotriglyceridemia (in words) (mice of the OF1 strain; mice, 0.1% in chow, 10 days) | further results |
| --- | --- | --- | --- | --- | --- |
| CCOP(=O)(OCC)C(Cc1cc(C(C)CC)c(O)c(C(C)CC)c1)P(=O)(OCC)OCC (stereo not drawn) [Compound 3] | -19 | -46 | hypocholesterolemic | significant hypotriglyceridemia | Percent change in blood pressure [1]: -20%; decreased plasma triglycerides by (mice of the OF1 strain; mice, 0.1% in chow, 10 days): more than 44% |
| COc1ccc([C@@H]2Sc3ccccc3N(CCN(C)C)C(=O)[C@@H]2OC(C)=O)cc1 [Diltiazem, reference compound] | – | – | – | – | Percent change in blood pressure [1]: -38% |
| CC(C)(C)c1cc(CC(P2(=O)OCCCO2)P2(=O)OCCCO2)cc(C(C)(C)C)c1O [Compound 24] | – | – | hypocholesterolemic | significant hypotriglyceridemia | change in vivo at 180 mg/kg (mice of the OF1 strain; [4]): -20%; change in vivo at 180 mg/kg (mice of the OF1 strain; [5]): -71%; decreased plasma triglycerides by (mice of the OF1 strain; mice, 0.1% in chow, 10 days): more than 44% |
| COP(=O)(OC)C(=Cc1cc(C(C)(C)C)c(O)c(C(C)(C)C)c1)P(=O)(OC)OC [Compound 47] | -31 | -45 | hypocholesterolemic | significant hypotriglyceridemia | decreased plasma triglycerides by (mice of the OF1 strain; mice, 0.1% in chow, 10 days): more than 44% |
| Cc1ccc(C)c(OCCCC(C)(C)C(=O)O)c1 [Gemfibrozil, reference compound] | – | – | less hypocholesterolemic than many of the diphosphonates tested | – | change in vivo at 180 mg/kg (mice of the OF1 strain; [4]): -7%; change in vivo at 180 mg/kg (mice of the OF1 strain; [5]): -35%; hypotriglyceridemic potency (plasma triglyceride change) (mice of the OF1 strain; mice, 0.1% in chow, 10 days): -35% |
| CCOP(=O)(OCC)C(=Cc1cc(OC)c(O)c(OC)c1)P(=O)(OCC)OCC [Compound 37] | -16 | -70 | hypocholesterolemic | significant hypotriglyceridemia | decreased plasma triglycerides by (mice of the OF1 strain; mice, 0.1% in chow, 10 days): more than 44% |
| CCOP(=O)(OCC)C(Cc1cc(C(C)C)c(O)c(C(C)C)c1)P(=O)(OCC)OCC [Compound 2] | 6 | -17 | – | – | – |
| CCOP(=O)(OCC)C(Cc1cc(C(C)(C)C)c(O)c(C(C)(C)C)c1)P(=O)(N(C)C)N(C)C (stereo not drawn) [Compound 19, Diethyl 1-bis(dimethylamino)phosphinyl-2-(3,5-ditertiarybutyl-4-hydroxyphenyl)ethylphosphonate] | -6 | -44 | – | – | decreased plasma triglycerides by (mice of the OF1 strain; mice, 0.1% in chow, 10 days): more than 44% |
| CCCOP(=O)(OCCC)C(=Cc1cc(C(C)(C)C)c(O)c(C(C)(C)C)c1)P(=O)(OCCC)OCCC [Compound 48] | – | – | hypocholesterolemic | significant hypotriglyceridemia | change in vivo at 180 mg/kg (mice of the OF1 strain; [4]): -21%; change in vivo at 180 mg/kg (mice of the OF1 strain; [5]): -36% |
| CCCCOP(=O)(OCCCC)C(=Cc1cc(C(C)(C)C)c(O)c(C(C)(C)C)c1)P(=O)(OCCCC)OCCCC [Compound 35] | – | – | – | – | change in vivo at 180 mg/kg (mice of the OF1 strain; [4]): 0%; change in vivo at 180 mg/kg (mice of the OF1 strain; [5]): 7% |
| CCCCOP(=O)(OCCCC)C(=Cc1cc(C(C)(C)C)c(O)c(C(C)(C)C)c1)P(=O)(OCC)OCC [Compound 42, Dibutyl diethyl 2-(3,5-ditertiarybutyl-4-hydroxyphenyl)-ethenylidene-1,1-diphosphonate] | 12 | 1 | – | – | – |
| CCOP(=O)(OCC)C(=Cc1cc(C(C)CC)c(O)c(C(C)CC)c1)P(=O)(OCC)OCC (stereo not drawn) [Compound 32] | 8 | 9 | – | – | – |
| CCOP(=O)(OCC)C(=Cc1ccc2c(c1)OCCO2)P(=O)(OCC)OCC [Compound 39] | 4 | 17 | – | – | – |
| CCOP(=O)(OCC)C(Cc1cc2c(cc1Cl)OCO2)P(=O)(OCC)OCC [Compound 13, Tetraethyl 2-(3,4-methylenedioxy-6-chlorophenyl)-ethylidene-1,1-diphosphonate] | -5 | 38 | – | – | – |
| CCOP(=O)(OCC)C(=Cc1cc(C)c(O)c(C(C)(C)C)c1)P(=O)(OCC)OCC [Compound 30, Tetraethyl 2-(3-tertiarybutyl-4-hydroxy-5-methylphenyl)-ethenylidene-1,1-diphosphonate] | 2 | -45 | – | significant hypotriglyceridemia | decreased plasma triglycerides by (mice of the OF1 strain; mice, 0.1% in chow, 10 days): more than 44% |
| CCOP(=O)(OCC)C(CCCCCCSc1cc(C(C)(C)C)c(O)c(C(C)(C)C)c1)P(=O)(OCC)OCC [Compound 20, Tetraethyl 7-(3,5-ditertiarybutyl-4-hydroxyphenylthio)-heptylidene-1,1-diphosphonate] | 5 | 13 | – | – | – |
| CC(C)OC(=O)C(C)(C)Oc1ccc(C(=O)c2ccc(Cl)cc2)cc1 [Fenofibrate, reference compound] | – | – | less hypocholesterolemic than many of the diphosphonates tested | – | change in vivo at 180 mg/kg (mice of the OF1 strain; [4]): -15%; change in vivo at 180 mg/kg (mice of the OF1 strain; [5]): -2%; hypocholesterolemic potency (plasma cholesterol change) (mice of the OF1 strain; mice, 0.1% in chow, 10 days): -15% |
| CC(C)OP(=O)(OC(C)C)C(Sc1cc(C(C)(C)C)c(O)c(C(C)(C)C)c1)P(=O)(OC(C)C)OC(C)C [Compound 22] | -21 | -37 | hypocholesterolemic | significant hypotriglyceridemia | – |
| CCOP(=O)(OCC)C(=CC=Cc1cc(C(C)(C)C)c(O)c(C(C)(C)C)c1)P(=O)(OCC)OCC [Compound 43, Tetraethyl 4-(3,5-ditertiarybutyl-4-hydroxyphenyl)-1,3-butadienylidene-1,1-diphosphonate] | -5 | -14 | – | – | – |
| CCOP(=O)(OCC)C(Cc1cc(C)c(O)c(C(C)(C)C)c1)P(=O)(OCC)OCC [Compound 1, Tetraethyl 2-(3-tertiarybutyl-4-hydroxy-5-methylphenyl)-ethylidene-1,1-diphosphonate] | -2 | -28 | – | – | – |
| CC(C)OP(=O)(OC(C)C)C(=Cc1cc(C(C)(C)C)c(O)c(C(C)(C)C)c1)P(=O)(OC(C)C)OC(C)C [Compound 34] | – | – | hypocholesterolemic | – | change in vivo at 180 mg/kg (mice of the OF1 strain; [4]): -41%; change in vivo at 180 mg/kg (mice of the OF1 strain; [5]): 11%; hypocholesterolemic potency (plasma cholesterol change) (mice of the OF1 strain; mice, 0.1% in chow, 10 days): -41% |
| CCOP(=O)(OCC)C(=Cc1ccc2c(c1)OCO2)P(=O)(OCC)OCC [Compound 38, Tetraethyl 2(3,4-methylenedioxyphenyl)-ethenylidene-1,1-diphosphonate] | -5 | -6 | – | – | – |
| CCOP(=O)(OCC)C(=Cc1cc(C(C)C)c(O)c(C(C)C)c1)P(=O)(OCC)OCC [Compound 31] | 4 | -11 | – | significant hypotriglyceridemia | – |
| CCCOP(=O)(OCCC)C(Cc1cc(C(C)(C)C)c(O)c(C(C)(C)C)c1)P(=O)(OCCC)OCCC [Compound 23] | -15 | -33 | hypocholesterolemic | significant hypotriglyceridemia | – |
| CCOP(=O)(OCC)C(=Cc1cc(C(C)(C)C)cc(C(C)(C)C)c1O)P(=O)(OCC)OCC [Compound 46] | 1 | -12 | – | – | – |
| CCOP(=O)(OCC)C(CC)(Cc1cc(C(C)(C)C)c(O)c(C(C)(C)C)c1)P(=O)(OCC)OCC [Compound 21, Tetraethyl 1-(3,5-ditertiarybutyl-4-hydroxyphenyl)-butylidene-2,2-diphosphonate] | -16 | -28 | hypocholesterolemic | significant hypotriglyceridemia | – |
| CCOC(=O)C(C)(C)Oc1ccc(Cl)cc1 [Clofibrate, reference compound] | – | – | less hypocholesterolemic than many of the diphosphonates tested | – | change in vivo at 180 mg/kg (mice of the OF1 strain; [4]): 4%; change in vivo at 180 mg/kg (mice of the OF1 strain; [5]): -5% |
| CCOP(=O)(OCC)C(=Cc1cc(C(C)(C)C)c(OC(C)=O)c(C(C)(C)C)c1)P(=O)(OCC)OCC [Compound 41, Tetraethyl 2-(3,5-ditertiarybutyl-4-acetoxyphenyl)-ethenylidene-1,1-diphosphonate] | -3 | 6 | – | – | – |
| CCOP(=O)(OCC)C(Sc1cc(C(C)(C)C)c(O)c(C(C)(C)C)c1)P(=O)(OCC)OCC [Compound 5, Tetraethyl 3,5-ditertiary-4-hydroxyphenylthio-methylenediphosphonate] | -22 | -24 | hypocholesterolemic | significant hypotriglyceridemia | – |
| COP(=O)(OC)C(Cc1cc(C(C)(C)C)c(O)c(C(C)(C)C)c1)P(=O)(OC)OC [Compound 10, Tetramethyl 2-(3,5-ditertiarybutyl-4-hydroxyphenyl)-ethylidene-1,1-diphosphonate] | -5 | -19 | – | – | – |
